According to PubChem BioAssay AID1963960 (Molecular Pharmacology Branch, DTP, NCI, 2024):

Tested on: MDA-MB-468 spheroids with HUVEC/MSC, viability
Assay: Anticancer human tumor MDA-MB-468 cell line growth inhibition [PI3K];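 note: spheroids exposed to agents for seven days before readout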;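 for viability, T/C: 100% = DMSO vehicle control viability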
Conditions: for IC50: curve of first compound; for viability, T/C: stronger effect = lower value
Source text: Combinatorial screen of targeted agents with the PI3K inhibitors inavolisib, alpelisib, duvelisib, and copanlisib in multi-cell type tumor spheroids
A high-throughput screen of multi-cell type tumor spheroids was designed to identify active combinations of targeted small molecules and PI3K pathway inhibitors. Complex spheroids include a stromal component modeled by human endothelial cells (HUVEC) and fibroblasts modeled by human mesenchymal stem cells (MSCs). The concentration ranges selected for each drug and investigational agent were based upon clinically achievable concentrations if the clinical Cmax of the agent was known.
Compounds. The drugs and investigational agents: inavolisib (NSC800729), alpelisib (NSC765974), duvelisib (NSC772469), copanlisib (NSC816437), ipatasertib (NSC767898), afuresertib (NSC778305), talazoparib (NSC767125), sapanisertib (NSC764658), selumetinib (NSC741078), tovorafenib (DAY101, NSC766906), vemurafenib (NSC761431), ravoxertinib (NSC781343), sotorasib (NSC818433), MRTX1133 (NSC 836407), abemaciclib (NSC 768073), palbociclib (NSC758247), venetoclax (NSC 766270), SY5609 (NSC837396), enzalutamide (NSC755605), and darolutamide (NSC825331), were obtained from the National Cancer Institute (NCI) Developmental Therapeutics Program Chemical Repository. The FDA-approved anticancer drug set is available from the NCI Developmental Therapeutics Program. […] The stock solutions were prepared in dimethyl sulfoxide (DMSO, Sigma-Aldrich, St. Louis, MO, cat. D2650) at 800-fold the tested concentration and stored at -70 degrees C prior to their use. All drugs and investigational agents were tested over a range starting from a high concentration at or near the clinical Cmax and decreasing in half-log increments. If the clinical Cmax for an agent had not been determined, the highest concentration tested was 10 microM.
Cell Culture. All cells were maintained in an incubator at 37 degrees C and 5% CO2 with 95% humidity. The PDC lines were cultured according to standard operating procedures established by the NCI PDMR (https://pdmr.cancer.gov/sops/default.htm). All PDCs were thawed and cultured in Matrigel-coated flasks prepared with a working solution of 1X Ham's F-12 nutrient mix, without supplementation (Invitrogen, Waltham, MA, cat. 11765054), 100 U/mL penicillin-streptomycin (Invitrogen, cat. 15140122), and 2.5% Matrigel (Corning Inc., Corning, NY, cat. 354248) for the first three passages. The 354836-022-R-J1-PDC, 475296-252-R-J1-PDC, and 997726-040-R-J2-PDC lines were cultured in 6A media, which includes advanced DMEM/F-12 (Thermo Fisher Scientific, cat. 12634028), 10 mM HEPES (Thermo Fisher Scientific, cat. 15630080), 1X GlutaMAX supplement (Thermo Fisher Scientific, cat. 35050061), 0.1 mg/mL primocin (InvivoGen, San Diego, CA, cat. ant-pm-2), 10% defined fetal bovine serum, heat inactivated (HyClone Laboratories Inc., Logan, UT, cat. SH30070.03HI), 50% L-WRN conditioned media (ATCC, cat. CRL-3276), 1.25 mM N-Acetyl-L-cysteine (Sigma-Aldrich, cat. A9165), 10 mM nicotinamide (Sigma-Aldrich, cat. N0636), 1X B-27 supplement (Thermo Fisher Scientific, cat. 17504044), 1X N-2 supplement (Thermo Fisher Scientific, cat. 17502048), and 10 microM Y-27632 dihydrochloride (Tocris Bioscience, Bristol, United Kingdom, cat. 1254). The 624824-186-R-J2-PDC line was cultured in 6C/Colon 1B media, which includes all 6A media components plus 50 ng/mL human EGF recombinant protein (Thermo Fisher Scientific, cat. PHG0311). […]

[1] = second compound 0.00316 µM, first compound 0.0316 µM
[2] = second compound 0.00316 µM, first compound 0.1 µM
[3] = second compound 0.00316 µM, first compound 0.316 µM
[4] = second compound 0.00316 µM, first compound 1 µM
[5] = second compound 0.00316 µM, first compound 3.16 µM
[6] = second compound 0.00316 µM, first compound 10 µM
[7] = second compound 0.01 µM, first compound 0.0316 µM
[8] = second compound 0.01 µM, first compound 0.1 µM
[9] = second compound 0.01 µM, first compound 0.316 µM
[10] = second compound 0.01 µM, first compound 1 µM
[11] = second compound 0.01 µM, first compound 3.16 µM
[12] = second compound 0.01 µM, first compound 10 µM
[13] = second compound 0.0316 µM, first compound 0.0316 µM
[14] = second compound 0.0316 µM, first compound 0.1 µM
[15] = second compound 0.0316 µM, first compound 0.316 µM
[16] = second compound 0.0316 µM, first compound 1 µM
[17] = second compound 0.0316 µM, first compound 3.16 µM
[18] = second compound 0.0316 µM, first compound 10 µM
[19] = second compound 0.1 µM, first compound 0.0316 µM
[20] = second compound 0.1 µM, first compound 0.1 µM
[21] = second compound 0.1 µM, first compound 0.316 µM
[22] = second compound 0.1 µM, first compound 1 µM
[23] = second compound 0.1 µM, first compound 3.16 µM
[24] = second compound 0.1 µM, first compound 10 µM
[25] = second compound 0.316 µM, first compound 0.0316 µM
[26] = second compound 0.316 µM, first compound 0.1 µM
[27] = second compound 0.316 µM, first compound 0.316 µM
[28] = second compound 0.316 µM, first compound 1 µM
[29] = second compound 0.316 µM, first compound 3.16 µM
[30] = second compound 0.316 µM, first compound 10 µM
[31] = second compound 1 µM, first compound 0.0316 µM
[32] = second compound 1 µM, first compound 0.1 µM
[33] = second compound 1 µM, first compound 0.316 µM
[34] = second compound 1 µM, first compound 1 µM
[35] = second compound 1 µM, first compound 3.16 µM
[36] = second compound 1 µM, first compound 10 µM

## CC1(C)CCC(CN2CCN(c3ccc(C(=O)NS(=O)(=O)c4ccc(NCC5CCOCC5)c([N+](=O)[O-])c4)c(Oc4cnc5[nH]ccc5c4)c3)CC2)=C(c2ccc(Cl)cc2)C1 + CC(Nc1ccc2c(c1)OCCn1cc(N3C(=O)OCC3C(F)F)nc1-2)C(N)=O
Second compound 0.00316 µM
  IC50: 4.86 µM
Second compound 0.01 µM
  IC50: 5.03 µM
Second compound 0.0316 µM
  IC50: 4.3 µM
Second compound 0.1 µM
  IC50: 4.32 µM
Second compound 0.316 µM
  IC50: 3.63 µM
Second compound 1 µM
  IC50: 3.48 µM
[1]
  viability, T/C: 94.2%
[2]
  viability, T/C: 99.9%
[3]
  viability, T/C: 82.1%
[4]
  viability, T/C: 91.6%
[5]
  viability, T/C: 74.4%
[6]
  viability, T/C: 8.95%
[7]
  viability, T/C: 91.8%
[8]
  viability, T/C: 108%
[9]
  viability, T/C: 90.1%
[10]
  viability, T/C: 108%
[11]
  viability, T/C: 77.5%
[12]
  viability, T/C: 9.38%
[13]
  viability, T/C: 97.6%
[14]
  viability, T/C: 89.3%
[15]
  viability, T/C: 71.6%
[16]
  viability, T/C: 94.6%
[17]
  viability, T/C: 64.6%
[18]
  viability, T/C: 9.45%
[19]
  viability, T/C: 97.9%
[20]
  viability, T/C: 95.7%
[21]
  viability, T/C: 83.4%
[22]
  viability, T/C: 83.8%
[23]
  viability, T/C: 67.2%
[24]
  viability, T/C: 10%
[25]
  viability, T/C: 89.6%
[26]
  viability, T/C: 74.7%
[27]
  viability, T/C: 96%
[28]
  viability, T/C: 76.5%
[29]
  viability, T/C: 56.2%
[30]
  viability, T/C: 8.04%
[31]
  viability, T/C: 80.6%
[32]
  viability, T/C: 79.8%
[33]
  viability, T/C: 79.6%
[34]
  viability, T/C: 90%
[35]
  viability, T/C: 53.8%
[36]
  viability, T/C: 9.1%

## C[C@@H](NC(=O)c1ncnc(N)c1Cl)c1ncc(C(=O)Nc2cc(C(F)(F)F)c(Cl)cn2)s1 + CC(Nc1ccc2c(c1)OCCn1cc(N3C(=O)OCC3C(F)F)nc1-2)C(N)=O
Second compound 0.00316 µM
  IC50: > 10 µM
Second compound 0.01 µM
  IC50: > 10 µM
Second compound 0.0316 µM
  IC50: > 10 µM
Second compound 0.1 µM
  IC50: > 10 µM
Second compound 0.316 µM
  IC50: > 10 µM
Second compound 1 µM
  IC50: > 10 µM
[1]
  viability, T/C: 91.6%
[2]
  viability, T/C: 102%
[3]
  viability, T/C: 93.7%
[4]
  viability, T/C: 102%
[5]
  viability, T/C: 104%
[6]
  viability, T/C: 108%
[7]
  viability, T/C: 104%
[8]
  viability, T/C: 105%
[9]
  viability, T/C: 105%
[10]
  viability, T/C: 107%
[11]
  viability, T/C: 93.3%
[12]
  viability, T/C: 81%
[13]
  viability, T/C: 104%
[14]
  viability, T/C: 92.2%
[15]
  viability, T/C: 102%
[16]
  viability, T/C: 97.3%
[17]
  viability, T/C: 93.3%
[18]
  viability, T/C: 81.4%
[19]
  viability, T/C: 98.7%
[20]
  viability, T/C: 85.2%
[21]
  viability, T/C: 93.2%
[22]
  viability, T/C: 101%
[23]
  viability, T/C: 101%
[24]
  viability, T/C: 86.2%
[25]
  viability, T/C: 83.3%
[26]
  viability, T/C: 83.7%
[27]
  viability, T/C: 94.7%
[28]
  viability, T/C: 99.7%
[29]
  viability, T/C: 108%
[30]
  viability, T/C: 68.2%
[31]
  viability, T/C: 97.3%
[32]
  viability, T/C: 89.5%
[33]
  viability, T/C: 89.6%
[34]
  viability, T/C: 99.5%
[35]
  viability, T/C: 91%
[36]
  viability, T/C: 74.1%
